Test results reported in publication PMC10056899, “Neuroprotective and Antiherpetic Properties of Polyphenolic Compounds from Maackia amurensis Heartwood” (Molecules, 2023).
Where “and” joins values, the source holds several entries; their conditions need not be identical. Equal values may be shown once.

Tests used:
[1] = DPPH radical scavenging assay; details: 20 min
Description: The DPPH (2,2-diphenyl-1-picrylhydrazyl) scavenging effect of polyphenolic compounds 1-6 from M. amurensis heartwood was evaluated as described previously in [40]. Stilbenes were added to DPPH solution in MeOH (10^−4 M) at a concentration range from 1 to 34 µM. The mixture was kept in the dark at room temperature for 20 min. Then, we measured the absorbance at 517 nm using a Shimadzu UV 1240 spectrophotometer (Shimadzu, Kyoto, Japan). The DPPH radical-scavenging effect (%) of the stilbenes was calculated using Equation (1): (1) DPPH scavenging effect, %=A0−Ax/A0×100, where: • A0 is the absorbance of DPPH solution without polyphenolic compounds (blank sample); • Ax is the absorbance of DPPH solution in the presence of different concentrations of polyphenolic compounds.
Quercetin and ascorbic acid were used as reference compounds. All experiments were performed in triplicate. The half maximal inhibitory concentration (IC50) for polyphenolic compounds was calculated by plotting the DPPH scavenging effect (%) against the concentrations of polyphenolic compounds. IC50 values are given as the mean ± SEM.

[2] = system: PQ-treated Neuro-2a cells; assay: Mitochondrial membrane potential in PQ-treated cells (TMRM); assay type: cell-based, murine; details: 0.1 μM
Description: […] Then, we added PQ (500 μM) and kept the cell suspension in a CO2-incubator for 1 h. Cells incubated without PQ and stilbenes and with PQ only were used as positive and negative control, respectively. We added the tetramethylrhodamine methyl (TMRM) (Sigma-Aldrich, St. Louis, MO, USA) solution (500 nM) to each well and kept the cells for 30 min in a CO2-incubator at 37 °C. The intensity of fluorescence was measured with a PHERAstar […] reader (BMG Labtech, Ortenberg, Germany) at λex = 540 nm and λem = 590 nm. We processed the data by MARS Data Analysis v. 3.01R2 (BMG Labtech, Ortenberg, Germany) and presented the results as percentages of the positive control value.

[3] = system: PQ-treated Neuro-2a cells; assay: Intracellular ROS level in PQ-treated cells (H2DCF-DA); assay type: cell-based, murine; details: Mus musculus, N2a, 0.1 μM (minimum studied concentration), PQ 1 mM
Description: After 24 h of adhesion, Neuro-2a cells (1 × 10^4 cells/well) were incubated with stilbenes (0.01–10 µM) for 1 h. After that, we added PQ (1 mM) to each well and incubated the cells for 3 h. To study ROS formation, we added 20 µL of 2,7-dichlorodihydrofluorescein diacetate solution ([…], H2DCF-DA, Molecular Probes, Eugene, OR, USA) to each well, so that the concentration was 10 µM, and kept the microplate in a CO2–incubator for additional 30 min at 37 °C.

[4] = Cytotoxicity against Vero cells (MTT assay); assay type: cell-based; details: African green monkey (Chlorocebus sp.)
Description: (§1) The HSV-1 strain L2 and Vero cell culture (kidney epithelial cells of the African green monkey Chlorocebus sp.) were obtained from the N.F. Gamaleya Federal Research Centre for Epidemiology and Microbiology (Moscow, Russia). HSV-1 was grown in Vero cells, using Dulbecco′s Modified Eagle′s Medium (DMEM, Biolot, St. Petersburg, Russia) supplemented with 10% fetal bovine serum (FBS, Biolot, St. Petersburg, Russia) and 100 U/mL of gentamycin (Dalkhimpharm, Khabarovsk, Russia), at 37 °C in a CO2 incubator. In the maintenance medium, the FBS concentration was decreased to 1%.
(§2) The tested compounds were dissolved in DMSO (Sigma, St. Louis, MO, USA) at a concentration 10 mg/mL and stored at −20 °C. For cytotoxicity and anti-HSV-1 activity determination, the stock solutions were diluted with DMEM so that the final concentration of DMSO was 0.5%.
The cytotoxicity evaluation of the studied compounds was performed using the MTT assay, as described previously. In brief, confluent Vero cells in 96-well microplates (1 × 10^4 cells/well) were incubated with tested compounds at various concentrations (1–500 μg/mL) at 37 °C for 48 h (5% CO2). Untreated cells were used as controls. Then, MTT solution (methylthiazolyltetrazolium bromide, Sigma, St. Louis, MO, USA) was added to cells at a concentration of 5 mg/mL and the cells were incubated at 37 °C for 2 h. After dissolution of formazan crystals, optical densities were read at 540 nm (Labsystems Multiskan RC, Vantaa, Finland). […] [42]. Experiments were performed in triplicate and repeated three times.

HSV-1 = assay: Anti-HSV-1 activity, cytopathic effect (CPE) inhibition assay in Vero cells; assay type: cell-based, HSV-1 strain L2
Description: as §1, §2
The anti-HSV-1 activity of stilbenes was evaluated using cytopathic effect (CPE) inhibition assay in Vero cells. We infected the monolayer of cells grown in 96-well plates (1 × 10^4 cells/well) with 100 µL/well of virus suspension (100 TCD50/mL) and we simultaneously treated it with stilbenes 1–6 (100 µL/well) at various concentrations (from 1 to 400 μg/mL) for one hour at 37 ◦C. After virus absorption, we removed the mixture of virus and stilbenes, washed the cells, and added the maintenance medium with 1% FBS. […] We used MTT assay to evaluate the antiviral activity of stilbenes. The viral inhibition rate (IR, %) was calculated according to Equation (3):(3) IR, %=Atv−Acv/Acd−Acv×100, where: • Atv is the absorbance of cells infected with virus and treated with a polyphenolic compound; • Acv is the absorbance of the untreated virus-infected cells; • Acd is the absorbance of control (untreated and non-infected) cells.
The selectivity index (SI) was calculated as the ratio of CC50 to IC50. Experiments were repeated three times.

[5] = Ferric reducing antioxidant power (FRAP) assay; details: 4 min, pH 3.6
Description: The FRAP assay was carried out as described in [41]. We prepared FRAP reagent by mixing 2.5 mL of TPTZ (2,4,6-tris(2-pyridyl)-s-triazine) solution (10 mM) in 40 mM HCl and […] of FeCl3 solution (20 mM) in acetate buffer solution (300 mM, pH 3.6). Then, we added stilbenes 1–6 to 3 mL of FRAP reagent at concentrations from 1 to 34 µM. The mixture was kept in the dark at room temperature for 4 min. Then, we measured the absorbance at 595 nm using a Shimadzu UV 1240 spectrophotometer. Equation (2) was used to calculate the FRAP values of stilbenes 1–6:(2) FRAP=CFe/Cx, where: • CFe is the concentration of Fe^2+ (µM) formed in the reaction; • Cx is the concentration of polyphenolic compounds in the reacting mixture.
The concentration of Fe^2+ (µM) formed in the reaction was determined using the calibration curve obtained for different concentrations of FeSO4·7H2O.

[6] = Cytotoxic activity against Neuro-2a cells (MTT assay); assay type: cell-based, murine; details: mouse, Neuro-2a neuroblastoma cells, data not shown, read-out: EC50 of cell viability reduction (cytotoxic activity)
Description: We purchased the murine neuroblastoma cell line Neuro-2a (CCL-131) from the American Type Culture Collection (ATCC®) (Manassas, VA, USA). We cultured Neuro-2a cells in Dulbecco′s Modified Eagle Medium (Biolot, St. Petersburg, Russia), which contained 10% fetal bovine serum (Biolot, St. Petersburg, Russia) and 1% penicillin/streptomycin (Biolot, St. Petersburg, Russia). We incubated the cells at 37 °C in a humidified atmosphere containing 5% (v/v) CO2.
We prepared the stock solutions of stilbenes in DMSO at a concentration of 10 mM. Compounds 1–6 were added to the wells of the plates in a volume of 20 μL diluted in PBS at the following final concentrations: 0.1, 1.0, and 10.0 µM (final concentration of DMSO <1%).
Neuro-2a cells (1 × 10^4 cells/well) were kept in a CO2 incubator at 37 °C for 24 h until they formed an adherent monolayer. Then, 20 μL of stilbenes solution was added to the cells. After incubation for 24 h, the medium containing the stilbenes was replaced by 100 μL of fresh DMEM medium. Then, we added 10 μL of MTT (3-(4,5-dimethylthiazol-2-yl)-2,5-diphenyltetrazolium bromide) (Sigma-Aldrich, St. Louis, MO, USA) stock solution (5 mg/mL) to each well and incubated the microplate for 4 h. […] After incubation for 18 h, we measured the absorbance of the converted dye formazan on a Multiskan FC microplate photometer (Thermo Scientific, Waltham, MA, USA) at a wavelength of 570 nm. […]

Structure (SMILES): Oc1cc(O)cc(/C=C/c2ccc3c(c2)O[C@H](c2cc(O)cc(O)c2)[C@@H](c2ccc(O)c(O)c2)O3)c1 [Compound 3, maackin]
- DPPH Scavenging Effect IC50 [1]: 1.31 ± 0.15 µg
- IC50 ([1]; read-out: DPPH Scavenging Effect IC50): 2.7 ± 0.3 µM
- Increase of mitochondrial membrane potential compared to PQ-treated cells [2]: 16%
- inhibition at 0.1 µM [3]: 17%
- CC50 at 48 h [4]: 270 µg/mL and 555 µM
- IC50 (HSV-1; Human alphaherpesvirus 1, Vero, read-out: IC50 (CPE assay)): 17.6 µg/mL and 36.2 µM
- SI = CC50/IC50 (HSV-1; Vero cells, HSV-1): 15.3 ± 1.9
- FRAP CFe2+(µM)/Cpolyphenolic compound (µM) [5]: 10.11 ± 0.93 CFe2+(µM)/Cpolyphenolic compound (µM)
- FRAP CFe2+(µM)/Cpolyphenolic compound (μkg/mL) [5]: 20.80 ± 1.91 CFe2+(µM)/Cpolyphenolic compound (μkg/mL)
- EC50 at 24 h [6]: 87.7 µM
